Columns and labels:
Type in all cases: in vivo
[1] = system: ivyleaf morningglory (Ipomoea hederacea, IPOHE); assay: Pre-emerge test, greenhouse herbicide activity screening; settings: pre-emerge, rated 14 days after application, 0 = no damage, 100 = complete death
Method in brief: (§1)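 Sandy loam pots; pre-emerge: sown 1 d pre-spray, surface-watered after, then bottom-watered. Post-emerge: sown 8–21 d before, 2–3 leaf stage, + 0.25% v/v NIS, bottom-watered. Acetone, 187 l/ha track spray, 15–1000 g ai/ha. 0–100 injury score, day 14.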

[2] = system: large crabgrass (Digitaria sanguinalis, DIGSA); assay: as above; settings: pre-emerge, rated 14 days after application, 0 = no damage, 100 = complete death
Method in brief: as §1

[3] = system: barnyardgrass (Echinochloa crus-galli, ECHCG); assay: as above; settings: pre-emerge, rated 14 days after application, 0 = no damage, 100 = complete death
Method in brief: as §1

[4] = system: green foxtail (Setaria viridis, SETVI); assay: as above; settings: pre-emerge, rated 14 days after application, 0 = no damage, 100 = complete death
Method in brief: as §1

[5] = system: johnsongrass (Sorghum halepense, SORHA); assay: as above; settings: pre-emerge, rated 14 days after application, 0 = no damage, 100 = complete death
Method in brief: as §1

[6] = system: velvetleaf (Abutilon theophrasti, ABUTH); assay: as above; settings: pre-emerge, rated 14 days after application, 0 = no damage, 100 = complete death
Method in brief: as §1

[7] = system: sicklepod (Cassia obtusifolia, CASOB); assay: as above; settings: pre-emerge, rated 14 days after application, 0 = no damage, 100 = complete death
Method in brief: as §1

[8] = system: lambsquarters (Chenopodium album, CHEAL); assay: as above; settings: pre-emerge, rated 14 days after application, 0 = no damage, 100 = complete death
Method in brief: as §1

[9] = system: field corn (Zea mays L., var. Dekalb 535, CORN); assay: Pre-emerge test, crop safety; settings: pre-emerge, rated 14 days after application, 0 = no damage, 100 = complete death
Method in brief: (§2)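 Applied at 15–1000 g ai/ha from acetone in 187 l/ha spray volume. Post-emergence applications included 0.25% v/v non-ionic surfactant and reached plants sown 8–21 days before. Pre-emergence applications were incorporated by surface watering. Efficacy or crop damage was rated on a 0–100 scale after 14 days.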

[10] = system: upland rice (Oryza sp., var. Tebonnet, RICE); assay: Pre-emerge test, crop safety; settings: pre-emerge, rated 14 days after application, 0 = no damage, 100 = complete death
Method in brief: as §2

[11] = system: redroot pigweed (Amaranthus retroflexus, AMARE); assay: Pre-emerge test, greenhouse herbicide activity screening; settings: pre-emerge, rated 14 days after application, 0 = no damage, 100 = complete death
Method in brief: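 Plants grown in 10 cm pots of sandy loam mix received acetone-dissolved compounds through a moving flat-fan nozzle. Doses ranged from 15 to 1000 g ai/ha. Pre-emerge pots were seeded one day earlier, post-emerge pots 8–21 days earlier. Fourteen days on, each pot was graded 0–100 for damage.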

[12] = system: ivyleaf morningglory (Ipomoea hederacea, IPOHE); assay: Post-emerge test, greenhouse herbicide activity screening; settings: phytotoxicity rating 0-100 (0 no damage, 100 complete death), 14 days after application
Method in brief: (§3)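 Rating: 0–100 visual injury, 14 DAA. Application: acetone, 187 l/ha, 15–1000 g ai/ha, flat-fan track sprayer with nozzle 40–45 cm above soil or canopy. Post-emerge runs used 0.25% v/v surfactant on 2–3 leaf plants.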

[13] = system: common ragweed (Ambrosia artemisizfolia L., AMBEL); assay: as above; settings: 250 g ai/ha; phytotoxicity rating 0-100 (0 no damage, 100 complete death), 14 days after application
Method in brief: as §3

[14] = system: large crabgrass (Digitaria sanguinalis, DIGSA); assay: as above; settings: phytotoxicity rating 0-100 (0 no damage, 100 complete death), 14 days after application
Method in brief: as §3

[15] = system: barnyardgrass (Echinochloa crus-galli, ECHCG); assay: as above; settings: phytotoxicity rating 0-100 (0 no damage, 100 complete death), 14 days after application
Method in brief: as §3

[16] = system: green foxtail (Setaria viridis, SETVI); assay: as above; settings: phytotoxicity rating 0-100 (0 no damage, 100 complete death), 14 days after application
Method in brief: as §3

[17] = system: johnsongrass (Sorghum halepense, SORHA); assay: as above; settings: phytotoxicity rating 0-100 (0 no damage, 100 complete death), 14 days after application
Method in brief: as §3

[18] = system: velvetleaf (Abutilon theophrasti, ABUTH); assay: as above; settings: phytotoxicity rating 0-100 (0 no damage, 100 complete death), 14 days after application
Method in brief: as §3

[19] = system: sicklepod (Cassia obtusifolia, CASOB); assay: as above; settings: phytotoxicity rating 0-100 (0 no damage, 100 complete death), 14 days after application
Method in brief: as §3

[20] = system: redroot pigweed (Amaranthus retroflexus, AMARE); assay: as above; settings: phytotoxicity rating 0-100 (0 no damage, 100 complete death), 14 days after application
Method in brief: as §3

[21] = system: lambsquarters (Chenopodium album, CHEAL); assay: as above; settings: phytotoxicity rating 0-100 (0 no damage, 100 complete death), 14 days after application
Method in brief: as §3

[22] = system: field corn (Zea mays L., var. Dekalb 535, CORN); assay: Post-emerge test, crop safety; settings: phytotoxicity rating 0-100 (0 no damage, 100 complete death), 14 days after application
Method in brief: as §1

[23] = system: upland rice (Oryza sp., var. Tebonnet, RICE); assay: Post-emerge test, crop safety; settings: phytotoxicity rating 0-100 (0 no damage, 100 complete death), 14 days after application
Method in brief: as §1

For CCOC(=O)CC(=O)Nc1c(OC(=O)CC(=O)OCC)c(Cl)cc(F)c1-n1c(=O)cc(C(F)(F)F)n(C)c1=O [2-16], the “Pre-emerge Herbicidal Activity IPOHE (phytotoxicity rating, scale 0-100)” value ([1]; 63 g ai/ha) was 0, the “Pre-emerge Herbicidal Activity IPOHE (phytotoxicity rating, scale 0-100)” value ([1]; 250 g ai/ha) was 90 and the “Pre-emerge Herbicidal Activity DIGSA (phytotoxicity rating, scale 0-100)” value ([2]; 63 g ai/ha) was 0. For the same compound, the “Pre-emerge Herbicidal Activity DIGSA (phytotoxicity rating, scale 0-100)” value ([2]; 250 g ai/ha) was 100, the “Pre-emerge Herbicidal Activity ECHCG (phytotoxicity rating, scale 0-100)” value ([3]; 63 g ai/ha) was 0 and the “Pre-emerge Herbicidal Activity ECHCG (phytotoxicity rating, scale 0-100)” value ([3]; 250 g ai/ha) was 40. For the same compound, the “Pre-emerge Herbicidal Activity SETVI (phytotoxicity rating, scale 0-100)” value ([4]; 63 g ai/ha) was 0, the “Pre-emerge Herbicidal Activity SETVI (phytotoxicity rating, scale 0-100)” value ([4]; 250 g ai/ha) was 100 and the “Pre-emerge Herbicidal Activity SORHA (phytotoxicity rating, scale 0-100)” value ([5]; 63 g ai/ha) was 0. The “Pre-emerge Herbicidal Activity SORHA (phytotoxicity rating, scale 0-100)” value ([5]; 250 g ai/ha) was 80, the “Pre-emerge Herbicidal Activity ABUTH (phytotoxicity rating, scale 0-100)” value ([6]; 63 g ai/ha) was 80 and the “Pre-emerge Herbicidal Activity ABUTH (phytotoxicity rating, scale 0-100)” value ([6]; 250 g ai/ha) was 100. The “Pre-emerge Herbicidal Activity CASOB (phytotoxicity rating, scale 0-100)” value ([7]; 63 g ai/ha) was 0, the “Pre-emerge Herbicidal Activity CASOB (phytotoxicity rating, scale 0-100)” value ([7]; 250 g ai/ha) was 100 and the “Pre-emerge Herbicidal Activity CHEAL (phytotoxicity rating, scale 0-100)” value ([8]; 63 g ai/ha) was 95. For the same compound, the “Pre-emerge Herbicidal Activity CHEAL (phytotoxicity rating, scale 0-100)” value ([8]; 250 g ai/ha) was 100, the “Pre-emerge crop damage CORN (phytotoxicity rating, scale 0-100)” value ([9]; 63 g ai/ha) was 0 and the “Pre-emerge crop damage CORN (phytotoxicity rating, scale 0-100)” value ([9]; 250 g ai/ha) was 20. For the same compound, the “Pre-emerge crop damage RICE (phytotoxicity rating, scale 0-100)” value ([10]; 63 g ai/ha) was 0, the “Pre-emerge crop damage RICE (phytotoxicity rating, scale 0-100)” value ([10]; 250 g ai/ha) was 15 and the “Pre-emerge Herbicidal Activity AMARE (phytotoxicity rating, scale 0-100)” value ([11]; 63 g ai/ha) was 50. The “Pre-emerge Herbicidal Activity AMARE (phytotoxicity rating, scale 0-100)” value ([11]; 250 g ai/ha) was 100, the “Post-emerge Herbicidal Activity IPOHE” value ([12]; 63 g ai/ha) was 99 and the “Post-emerge Herbicidal Activity IPOHE” value ([12]; 250 g ai/ha) was 100. For the same compound, the “Post-emerge Herbicidal Activity AMBEL” value [13] was 100, the “Post-emerge Herbicidal Activity DIGSA” value ([14]; 63 g ai/ha) was 20 and the “Post-emerge Herbicidal Activity DIGSA” value ([14]; 250 g ai/ha) was 60. For the same compound, the “Post-emerge Herbicidal Activity ECHCG” value ([15]; 63 g ai/ha) was 90, the “Post-emerge Herbicidal Activity ECHCG” value ([15]; 250 g ai/ha) was 100 and the “Post-emerge Herbicidal Activity SETVI” value ([16]; 63 g ai/ha) was 50. For the same compound, the “Post-emerge Herbicidal Activity SETVI” value ([16]; 250 g ai/ha) was 100, the “Post-emerge Herbicidal Activity SORHA” value ([17]; 63 g ai/ha) was 40 and the “Post-emerge Herbicidal Activity SORHA” value ([17]; 250 g ai/ha) was 95. The “Post-emerge Herbicidal Activity ABUTH” value ([18]; 63 g ai/ha) was 100, the “Post-emerge Herbicidal Activity ABUTH” value ([18]; 250 g ai/ha) was 100 and the “Post-emerge Herbicidal Activity CASOB” value ([19]; 63 g ai/ha) was 10. The “Post-emerge Herbicidal Activity CASOB” value ([19]; 250 g ai/ha) was 80, the “Post-emerge Herbicidal Activity AMARE” value ([20]; 63 g ai/ha) was 50 and the “Post-emerge Herbicidal Activity AMARE” value ([20]; 250 g ai/ha) was 100. The “Post-emerge Herbicidal Activity CHEAL” value ([21]; 63 g ai/ha) was 80, the “Post-emerge Herbicidal Activity CHEAL” value ([21]; 250 g ai/ha) was 100 and the “Post-emerge Herbicidal Activity CORN (crop damage)” value ([22]; 63 g ai/ha) was 70. The “Post-emerge Herbicidal Activity CORN (crop damage)” value ([22]; 250 g ai/ha) was 90, the “Post-emerge Herbicidal Activity RICE (crop damage)” value ([23]; 63 g ai/ha) was 40 and the “Post-emerge Herbicidal Activity RICE (crop damage)” value ([23]; 250 g ai/ha) was 45.
